Source: patent US11180462B2, “Microbiocidal oxadiazole derivatives” (SYNGENTA PARTICIPATIONS AG, priority 2015, dated 2021)

Key:
[1] = test system: Puccinia recondita f. Sp. Tritici; experiment: Fungicidal activity against Puccinia recondita f. sp. tritici / wheat / leaf disc preventative (brown rust); format: in vivo; details: foliar, 200 ppm in the applied formulation, wheat leaf segments, preventative, compared to untreated control leaf disks, read-out: disease control
Experimental: Leaf disks or leaf segments of various plant species are cut from plants grown in a greenhouse. The cut leaf disks or segments are placed in multiwell plates (24-well format) onto water agar. The leaf disks are sprayed with a test solution before (preventative) or after (curative) inoculation. Compounds to be tested are prepared as DMSO solutions (max. 10 mg/ml) which are diluted to the appropriate concentration with 0.025% Tween20 just before spraying. The inoculated leaf disks or segments are incubated under defined conditions (temperature, relative humidity, light, etc.) according to the respective test system. A single evaluation of disease level is carried out 3 to 14 days after inoculation, depending on the pathosystem. Percent disease control relative to the untreated check leaf disks or segments is then calculated.
Fungicidal Activity Against Puccinia recondita f. Sp. Tritici/Wheat/Leaf Disc Preventative (Brown Rust)
Wheat leaf segments cv. Kanzler were placed on agar in multiwell plates (24-well format) and sprayed with the formulated test compound diluted in water. The leaf disks were inoculated with a spore suspension of the fungus 1 day after application. The inoculated leaf segments were incubated at 19° C. and 75% relative humidity (rh) under a light regime of 12 hours light/12 hours darkness in a climate cabinet and the activity of a compound was assessed as percent disease control compared to untreated when an appropriate level of disease damage appears in untreated check leaf segments (7 to 9 days after application).
The following compounds at 200 ppm in the applied formulation give at least 80% disease control in this test when compared to untreated control leaf disks under the same conditions, which show extensive disease development.

[2] = test system: Glomerella lagenarium (Colletotrichum lagenarium); experiment: Fungicidal activity against Glomerella lagenarium (Colletotrichum lagenarium) liquid culture / cucumber / preventative (anthracnose); format: cell-based; details: Colletotrichum orbiculare; 20 ppm in the applied formulation; liquid culture (PDB), growth inhibition measured photometrically after 3 to 4 days; compared to untreated control; read-out: disease control
In short: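 Photometric read-out of fungal growth after 2–7 days, expressed as percent antifungal activity versus untreated check. Cryo-stored conidia in PDB; compound at 20 ppm; dark, 24 °C, 96% RH.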

| SMILES | pest or weed control at 200 ppm [1] [%] | inhibition of growth at 20 ppm [2] [%] |
| --- | --- | --- |
| CCCON(Cc1ccc(-c2noc(C(F)(F)F)n2)cc1)C(=O)COC [Compound 1.287, 2-methoxy-N-propoxy-N-[[4-[5-(trifluoromethyl)-1,2,4-oxadiazol-3-yl]phenyl]methyl]-acetamide] | ≥ 80 | ≥ 80 |
| CC#CC(=O)N(Cc1ccc(-c2noc(C(F)(F)F)n2)cc1)CC1CCCO1 (centres unmarked) [Compound 1.410, N-(tetrahydrofuran-2-ylmethyl)-N-[[4-[5-(trifluoromethyl)-1,2,4-oxadiazol-3-yl]phenyl]methyl]-2-ynamide] | ≥ 80 | ≥ 80 |
| O=C(C1CC1(F)F)N(Cc1ccc(-c2noc(C(F)(F)F)n2)cc1)CC1CCCO1 (centres unmarked) [Compound 1.414, 2,2-difluoro-N-(tetrahydrofuran-2-ylmethyl)-N-[[4-[5-(trifluoromethyl)-1,2,4-oxadiazol-3-yl]phenyl]methyl]-cyclopropane-carboxamide] | ≥ 80 | ≥ 80 |
| CC#CC(=O)N(Cc1ccc(-c2noc(C(F)(F)F)n2)cc1)C(C)CC (centres unmarked) [Compound 1.367, N-sec-butyl-N-[[4-[5-(trifluoromethyl)-1,2,4-oxadiazol-3-yl]phenyl]methyl]-but-2-ynamide] | ≥ 80 | ≥ 80 |
| CCCCON(Cc1ccc(-c2noc(C(F)(F)F)n2)cc1)C(=O)COC [Compound 1.602, N-butoxy-2-methoxy-N-[[4-[5-(trifluoromethyl)-1,2,4-oxadiazol-3-yl]phenyl]methyl]-acetamide] | ≥ 80 | ≥ 80 |
| CCC(C)C(=O)N(Cc1ccc(-c2noc(C(F)(F)F)n2)cc1)CC1CCCO1 (centres unmarked) [Compound 1.437, 2-methyl-N-(tetrahydrofuran-2-ylmethyl)-N-[[4-[5-(trifluoromethyl)-1,2,4-oxadiazol-3-yl]phenyl]methyl]-butanamide] | ≥ 80 | ≥ 80 |
| O=C(CCl)N(Cc1ccc(-c2noc(C(F)(F)F)n2)cc1)Cc1ccco1 [Compound 1.462, 2-chloro-N-(2-furylmethyl)-N-[[4-[5-(trifluoromethyl)-1,2,4-oxadiazol-3-yl]phenyl]methyl]-acetamide] | ≥ 80 | ≥ 80 |
| CC=CC(=O)N(OC)C(C)c1ccc(-c2noc(C(F)(F)F)n2)cc1 (centres unmarked) [Compound 1.250, N-methoxy-N-[1-[4-[5-(trifluoromethyl)-1,2,4-oxadiazol-3-yl]phenyl]ethyl]but-2-enamide] | ≥ 80 | ≥ 80 |
| CON(Cc1ccc(-c2noc(C(F)(F)F)n2)cc1)C(=O)c1cccc2nnsc12 [Compound 1.67, N-methoxy-N-[[4-[5-(trifluoromethyl)-1,2,4-oxadiazol-3-yl]phenyl]methyl]-1,2,3-benzothiadiazole-7-carboxamide] | ≥ 80 | ≥ 80 |
| O=C(N(Cc1ccc(-c2noc(C(F)(F)F)n2)cc1)CC1CCCO1)C1(F)CC1 (centres unmarked) [Compound 1.436, 1-fluoro-N-(tetrahydrofuran-2-ylmethyl)-N-[[4-[5-(trifluoromethyl)-1,2,4-oxadiazol-3-yl]phenyl]methyl]-cyclopropane-carboxamide] | ≥ 80 | ≥ 80 |
| COCCN(Cc1ccc(-c2noc(C(F)(F)F)n2)cc1)C(=O)C=CC(C)=O [Compound 1.352, N-(2-methoxyethyl)-4-oxo-N-[[4-[5-(trifluoromethyl)-1,2,4-oxadiazol-3-yl]phenyl]methyl]-pent-2-enamide] | ≥ 80 | ≥ 80 |
| CCCON(Cc1ccc(-c2noc(C(F)(F)F)n2)cc1)C(=O)COCCOC [Compound 1.298, 2-(2-methoxyethoxy)-N-propoxy-N-[[4-[5-(trifluoromethyl)-1,2,4-oxadiazol-3-yl]phenyl]methyl]-acetamide] | ≥ 80 | ≥ 80 |
| C#CCN(Cc1ccc(-c2noc(C(F)(F)F)n2)cc1)C(=O)c1cc(Cl)ccc1O [Compound 1.184, 5-chloro-2-hydroxy-N-prop-2-ynyl-N-[[4-(5-(trifluoromethyl)-1,2,4-oxadiazol-3-yl]phenyl]methyl]-benzamide] | ≥ 80 | ≥ 80 |
| COc1ccccc1CC(=O)N(Cc1ccc(-c2noc(C(F)(F)F)n2)cc1)C1CC1 [Compound 1.113, N-cyclopropyl-2-(2-methoxyphenyl)-N-[[4-[5-(trifluoromethyl)-1,2,4-oxadiazol-3-yl]phenyl]methyl]-acetamide] | ≥ 80 | ≥ 80 |
| CC(C)CC(=O)N(Cc1ccc(-c2noc(C(F)(F)F)n2)cc1)CC1CCCO1 (centres unmarked) [Compound 1.423, 3-methyl-N-(tetrahydrofuran-2-ylmethyl)-N-[[4-[5-(trifluoromethyl)-1,2,4-oxadiazol-3-yl]phenyl]methyl]-butanamide] | ≥ 80 | ≥ 80 |
| O=C(C1CCC1)N(Cc1ccc(-c2noc(C(F)(F)F)n2)cc1)CC1CCCO1 (centres unmarked) [Compound 1.424, N-(tetrahydrofuran-2-ylmethyl)-N-[[4-[5-(trifluoromethyl)-1,2,4-oxadiazol-3-yl]phenyl]methyl]-cyclobutane-carboxamide] | ≥ 80 | ≥ 80 |
| CON(Cc1ccc(-c2noc(C(F)(F)F)n2)cc1)C(=O)N1CCCO1 [Compound 3.66, N-methoxy-N-[[4-[5-(trifluoromethyl)-1,2,4-oxadiazol-3-yl]phenyl]methyl]-isoxazolidine-2-carboxamide] | ≥ 80 | ≥ 80 |
| CC1(C(=O)N(Cc2ccc(-c3noc(C(F)(F)F)n3)cc2)C2CC2)CC1(Cl)Cl (centres unmarked) [Compound 1.107, 2,2-dichloro-N-cyclopropyl-1-methyl-N-[[4-[5-(trifluoromethyl)-1,2,4-oxadiazol-3-yl]phenyl]methyl]-cyclopropane-carboxamide] | ≥ 80 | ≥ 80 |
| C#CCOC(C(=O)N(Cc1ccc(-c2noc(C(F)(F)F)n2)cc1)C1CC1)c1ccc(Cl)cc1 (centres unmarked) [Compound 1.141, 2-(4-chlorophenyl)-N-cyclopropyl-2-prop-2-ynoxy-N-[[4-[5-(trifluoromethyl)-1,2,4-oxadiazol-3-yl]phenyl]methyl]-acetamide] | ≥ 80 |  |
| COCCN(Cc1ccc(-c2noc(C(F)(F)F)n2)cc1)C(=O)C1(NC=O)CC1 [Compound 1.354, 1-formamido-N-(2-methoxyethyl)-N-[[4-[5-(trifluoromethyl)-1,2,4-oxadiazol-3-yl]phenyl]methyl]-cyclopropane-carboxamide] | ≥ 80 |  |
| CON(Cc1ccc(-c2noc(C(F)(F)F)n2)cc1)C(=O)C1C(C=C(Cl)Cl)C1(C)C (centres unmarked) [Compound 1.62, 3-(2,2-dichlorovinyl)-N-methoxy-2,2-dimethyl-N-[[4-[5-(trifluoromethyl)-1,2,4-oxadiazol-3-yl]phenyl]methyl]-cyclopropane-carboxamide] | ≥ 80 |  |
| COc1ccc(C2(C(=O)N(Cc3ccc(-c4noc(C(F)(F)F)n4)cc3)C3CC3)CC2)cc1 [Compound 1.143, N-cyclopropyl-1-(4-methoxyphenyl)-N-[[4-[5-(trifluoromethyl)-1,2,4-oxadiazol-3-yl]phenyl]methyl]-cyclopropane-carboxamide] | ≥ 80 |  |
| C#CCOC(=O)NC(C(=O)N(CC#C)Cc1ccc(-c2noc(C(F)(F)F)n2)cc1)C(C)C (centres unmarked) [Compound 1.198, prop-2-ynyl N-[2-methyl-1-[prop-2-ynyl-[[4-[5-(trifluoromethyl)-1,2,4-oxadiazol-3-yl]phenyl]methyl]-carbamoyl]propyl]-carbamate] | ≥ 80 |  |
| O=C(Cc1ccc(Cl)cc1)N(Cc1ccc(-c2noc(C(F)(F)F)n2)cc1)CC1CC1 [Compound 1.234, 2-(4-chlorophenyl)-N-(cyclopropylmethyl)-N-[[4-[5-(trifluoromethyl)-1,2,4-oxadiazol-3-yl]phenyl]methyl]-acetamide] | ≥ 80 |  |
| C#CCN(Cc1ccc(-c2noc(C(F)(F)F)n2)cc1)C(=O)Cc1ccccc1 [Compound 1.186, 2-phenyl-N-prop-2-ynyl-N-[[4-[5-(trifluoromethyl)-1,2,4-oxadiazol-3-yl]phenyl]methyl]-acetamide] | ≥ 80 |  |
| O=CNC1(C(=O)N(Cc2ccc(-c3noc(C(F)(F)F)n3)cc2)CC2CCCO2)CC1 (centres unmarked) [Compound 1.441, 1-formamido-N-(tetrahydrofuran-2-ylmethyl)-N-[[4-[5-(trifluoromethyl)-1,2,4-oxadiazol-3-yl]phenyl]methyl]-cyclopropane-carboxamide] | ≥ 80 |  |
